Patent US20090029932A1, “Identification and use of miRNAs for differentiating myeloid leukemia cells” (Centre National De La Recherche Scientifique (CNRS), priority 2004, published 2009)

What was measured:
miRNAs in NB4-LR1 cells = experiment: Northern blot of miRNA expression in NB4-LR1 cells; format: cell-based, human; conditions: NB4-LR1 compared with NB4; ATRA
Procedure: (§1) The total RNA was extracted from the cells of the NB4 cell lines treated or not treated with 1 μM of ATRA, at the same time intervals as in example 1, and using the Tri-Reagent® kit (SIGMA) according to the manufacturer's instructions. The analysis of the low molecular weight RNA by northern blot was carried out as described in LLAVE et al. (2002, previously cited). All of the northern blot experiments were carried out in double. DNA oligonucleotides complementary to the sequences of the miRNAs analysed were labelled at their end with ATP γ-P^32 using the polynucleotide kinase T4 (NEW ENGLAND BIOLABS) by following the manufacturer's instructions.
To formally establish the correlation between the expression of the different miRNAs identified and the differentiation in granulocytes, cells from NB4 and NB4-LR1 cell lines were cultivated in the presence or absence of ATRA as described in example 1. Northern blot experiments were carried out according to the protocol described in example 2. The different northern blot experiments were carried out with probes complementary to the miRNAs miR-23a, miR-17, miR-18, miR-19a, miR-19b, miR-20, miR-23 and miR-92. […]

NB4 cell line = experiment: Granulocytic differentiation, NBT reduction test, NB4 cells; format: cell-based, human; conditions: for percentage of cells differentiated during the treatment: 100 μM 8-CPT-cAMP where added, NBT positive cells
Procedure: (§2) The cells from cell line NB4 and cell line NB4-LR1, resistant at maturation only by ATRA, were grown as described in LANOTTE et al. (1991, previously cited) and in RUCHAUD et al. (Proc. Natl. Acad. Sci., vol. 91, p: 8428-8432, 1994). The cells were then treated for 4 days in the presence of 1 μM of all-trans retinoic acid (ATRA, SIGMA-ALRICH) alone or with the addition of 100 μM of an cAMP analogue (8-CPT-cAMP, SIGMA-ALRICH). The cell proliferation was determined on a daily basis by counting the cells using a cell counter (BECKMAN COULTER FRANCE SA) from day 0, following the addition of the therapeutic agent, to day 4.
(§3) In parallel, the evolution of the differentiation was determined on a daily basis throughout the treatment. The granulocytic differentiation was simultaneously evaluated according to the morphological and biochemical criteria. The morphological analysis was carried out after May-Grünwald colouring. The biochemical analysis was carried out by a coloration test based on the reduction of NBT (nitro blue tetrazolium) that is used to measure the oxidative ability of the mature cells to reduce the NBT colorant. For this purpose, 0.5 to 1×10^5 cells were centrifuged for 5 minutes at 190 g. The cell sediment was then recovered in 200 μl of saline phosphate buffer (PBS) with the addition of NBT (SIGMA ALDRICH, 1 mg/ml) and PMA (Phorbol 12-myristate 13-acetate, SIGMA, 10^−7M) and then was incubated for 20 minutes at 37° C. The cells were then collected on slides by Cytospin® centrifugation, then observed by phase contrast microscopy. A minimum of 200 cells per slide were examined under light microscope and a differentiation percentage was calculated on the basis of the number of positive NBT cells.

miR23a in NB4-LR2 cells = experiment: Northern blot of miR23a expression in NB4-LR2 cells; format: cell-based, human; conditions: ATRA
NB4-LR1 cell line = experiment: Granulocytic differentiation, NBT reduction test, NB4-LR1 cells; format: cell-based, human; conditions: for percentage of cells differentiated during the treatment: 100 μM 8-CPT-cAMP where added, NBT positive cells
Procedure: as §2, §3

miRNAs in NB4 cells = experiment: Northern blot of miRNA expression in NB4 cells; format: cell-based, human; conditions: 1 μM ATRA
Procedure: as §1
The quantity of RNA in each well was controlled by coloration of the gel with ethidium bromide and visualisation of the ribosomal RNA (rRNA) under UV light. […] In addition, the miRNAs that seem to belong to a same precursor effectively present a similar expression profile over time.
To formally establish the correlation between the expression of the different miRNAs identified and the differentiation in granulocytes, cells from NB4 and NB4-LR1 cell lines were cultivated in the presence or absence of ATRA as described in example 1. Northern blot experiments were carried out according to the protocol described in example 2. The different northern blot experiments were carried out with probes complementary to the miRNAs miR-23a, miR-17, miR-18, miR-19a, miR-19b, miR-20, miR-23 and miR-92.
To confirm the correlation between the expression of different miRNAs, and in particular miR-17, miR-18, miR-19a, miR19b, miR-20 and miR-92 and the differentiation in granulocytes, cells from NB4 and NB4-LR1 cell lines were cultivated in the presence or absence of ATRA/cAMP as described in example 1. Following an ATRA/cAMP co-treatment, the differentiation of the cells in the NB4-LR1 cell line in granulocytes is restored. Northern blot experiments were carried out according to the protocol described in example 2. […]

NB4-LR2 cell line = conditions: truncated PML-RARa; cited from earlier work

With CC1=C(/C=C/C(C)=C/C=C/C(C)=C/C(=O)O)C(C)(C)CCC1 [ATRA, all-trans retinoic acid] the “expression profile of miR-17, miR-18, miR-19a, miR19b, miR-20 and miR-92” value (miRNAs in NB4-LR1 cells) was “different expression profile between the NB4 and NB4-LR1 cells”, the “differentiation of the cells (in words)” value (NB4 cell line) was “differentiate” and the “percentage of cells differentiated during the treatment” value (NB4 cell line; day 0, 1 μM ATRA) was 0%. The “percentage of cells differentiated during the treatment” value (NB4 cell line; day 1, 1 μM ATRA) was 6%, the “percentage of cells differentiated during the treatment” value (NB4 cell line; day 2, 1 μM ATRA) was 20% and the “percentage of cells differentiated during the treatment” value (NB4 cell line; day 3, 1 μM ATRA) was 43%. For the same compound, the “percentage of cells differentiated during the treatment” value (NB4 cell line; day 4, 1 μM ATRA) was 95%, the “expression of miR23a” value (miR23a in NB4-LR2 cells) was “an increase in the expression of miR23a is not observed” and the “differentiation of the cells (in words)” value (NB4-LR1 cell line) was “only the cells in the NB4 cell line differentiate”. The “percentage of cells differentiated during the treatment” value (NB4-LR1 cell line; day 0, 1 μM ATRA) was 0%, the “percentage of cells differentiated during the treatment” value (NB4-LR1 cell line; day 1, 1 μM ATRA) was 0% and the “percentage of cells differentiated during the treatment” value (NB4-LR1 cell line; day 2, 1 μM ATRA) was 2%. For the same compound, the “percentage of cells differentiated during the treatment” value (NB4-LR1 cell line; day 3, 1 μM ATRA) was 5%, the “percentage of cells differentiated during the treatment” value (NB4-LR1 cell line; day 4, 1 μM ATRA) was 5% and the “expression profile of miR-19b and miR-92, time of maximum” value (miRNAs in NB4 cells; 0 to 4 days) was “maximum of expression on day three of treatment”. The “level of expression of miR-23a” value (miRNAs in NB4 cells; 0 to 4 days) was “increases over time”, the “level of expression of miR-19b and miR-92 on day 4 of treatment” value (miRNAs in NB4 cells; against non treated cells) was “lower than their level of expression in the non treated cells” and the “sensitivity of the cells to induced differentiation” value (NB4-LR2 cell line) was “insensitive”.
